Measured values taken from US9902722B2, “Biaryl kinase inhibitors” (BRISTOL-MYERS SQUIBB COMPANY, priority 2014, dated 2018).

molecular target: GST-Xa-hAAK1 (Homo sapiens (Human), UniProt Q2M2I8); assay: AAK1 Kinase Assay; type: biochemical; settings: bacterially expressed GST-Xa-hAAK1 3.5 nM; ATP 22 μM; peptide substrate 1.5 μM; 3 hours at room temperature; Caliper LabChip 3000;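 also: each compound tested across an eleven-point concentration series, with IC50 obtained through non-linear regression fitting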
Sequence (Q2M2I8 whole entry): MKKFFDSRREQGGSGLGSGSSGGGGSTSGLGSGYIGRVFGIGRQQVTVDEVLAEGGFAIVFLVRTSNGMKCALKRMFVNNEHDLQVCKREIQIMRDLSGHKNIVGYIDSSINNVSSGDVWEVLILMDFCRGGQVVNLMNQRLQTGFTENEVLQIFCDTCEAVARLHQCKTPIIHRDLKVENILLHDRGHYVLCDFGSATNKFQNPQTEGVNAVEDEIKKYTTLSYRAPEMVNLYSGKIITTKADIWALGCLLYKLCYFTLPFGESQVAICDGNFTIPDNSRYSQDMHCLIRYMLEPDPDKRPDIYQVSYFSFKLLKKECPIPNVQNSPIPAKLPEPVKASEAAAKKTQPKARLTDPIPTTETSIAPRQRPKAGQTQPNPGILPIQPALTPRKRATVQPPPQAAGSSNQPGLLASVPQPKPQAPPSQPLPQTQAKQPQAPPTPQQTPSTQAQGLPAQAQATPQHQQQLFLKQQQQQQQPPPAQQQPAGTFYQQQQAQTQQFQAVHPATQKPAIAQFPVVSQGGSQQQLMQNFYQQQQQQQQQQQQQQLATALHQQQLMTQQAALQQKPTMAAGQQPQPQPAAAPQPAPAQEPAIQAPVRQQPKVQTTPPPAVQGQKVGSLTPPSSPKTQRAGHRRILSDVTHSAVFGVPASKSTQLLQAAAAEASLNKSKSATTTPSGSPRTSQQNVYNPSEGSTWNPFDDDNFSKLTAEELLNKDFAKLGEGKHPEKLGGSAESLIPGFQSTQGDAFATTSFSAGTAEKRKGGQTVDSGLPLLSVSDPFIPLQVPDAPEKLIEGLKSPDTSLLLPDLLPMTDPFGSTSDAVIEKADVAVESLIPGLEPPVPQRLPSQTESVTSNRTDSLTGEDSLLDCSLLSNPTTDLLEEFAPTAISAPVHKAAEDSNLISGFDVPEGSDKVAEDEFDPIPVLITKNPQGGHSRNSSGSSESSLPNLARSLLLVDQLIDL

IC50 | SMILES
491 nM | COC(=O)Nc1cc(-c2cnc(OC[C@@](C)(N)CC(C)C)nc2)ccn1 [Example 211, (S)-methyl (4-(2-((2-amino-2,4-dimethylpentyl)oxy)pyrimidin-5-yl)pyridin-2-yl)carbamate]
1020 nM | Cc1cc(-c2cc(C)c(OC[C@@](C)(N)CC(C)C)c(C)n2)ccn1 [Example 212, (S)-2,4-dimethyl-1-((2′,4,6-trimethyl-[2,4′-bipyridin]-5-yl)oxy)pentan-2-amine]
22 nM | COC(=O)Nc1cc(-c2cc(C)c(OC[C@@](C)(N)CC(C)C)c(C)n2)ccn1 [Example 213, (S)-methyl (5-((2-amino-2,4-dimethylpentyl)oxy)-4,6-dimethyl-[2,4′-bipyridin]-2′-yl)carbamate]
0.86 nM | CC(C)C[C@](C)(N)COc1ccc(-c2ncnc3ccccc23)cc1C(F)(F)F [Example 214, (S)-2,4-dimethyl-1-(4-(quinazolin-4-yl)-2-(trifluoromethyl)phenoxy)pentan-2-amine]
197 nM | CC(C)C[C@](C)(N)COc1ccc(C2=CCOCC2)cc1C(F)(F)F [Example 215, (S)-1-(4-(3,6-dihydro-2H-pyran-4-yl)-2-(trifluoromethyl)phenoxy)-2,4-dimethylpentan-2-amine]
25 nM | Cc1cc(-c2ccc(OC[C@@](C)(N)CC(C)C)c(C(F)(F)F)c2)c2ccccc2n1 [Example 216, (S)-2,4-dimethyl-1-(4-(2-methylquinolin-4-yl)-2-(trifluoromethyl)phenoxy)pentan-2-amine]
1 nM | CC(C)C[C@](C)(N)COc1ncc(-c2ccnc3cc(F)cc(F)c23)cc1C(F)(F)F [Example 218, (S)-1-((5-(5,7-difluoroquinolin-4-yl)-3-(trifluoromethyl)pyridin-2-yl)oxy)-2,4-dimethylpentan-2-amine]
0.59 nM | CC(C)C[C@](C)(N)COc1ncc(-c2ccnc3ccccc23)cc1C(F)(F)F [Example 219, (S)-2,4-dimethyl-1-((5-(quinolin-4-yl)-3-(trifluoromethyl)pyridin-2-yl)oxy)pentan-2-amine]
0.38 nM | COC(=O)Nc1cc(-c2cnc(OC[C@@](C)(N)CC(C)C)c(C(F)(F)F)c2)ccn1 [Example 220, (S)-methyl (6-((2-amino-2,4-dimethylpentyl)oxy)-5-(trifluoromethyl)-[3,4′-bipyridin]-2′-yl)carbamate]
4.1 nM | Cc1cc(-c2cnc(OC[C@@](C)(N)CC(C)C)c(C(F)(F)F)c2)ccn1 [Example 221, (S)-2,4-dimethyl-1-((2′-methyl-5-(trifluoromethyl)-[3,4′-bipyridin]-6-yl)oxy)pentan-2-amine]
0.88 nM | Cc1cc(-c2ccnc3ccc(F)cc23)cnc1OC[C@@](C)(N)CC(C)C [Example 223, (S)-1-((5-(6-fluoroquinolin-4-yl)-3-methylpyridin-2-yl)oxy)-2,4-dimethylpentan-2-amine]
1.1 nM | Cc1cc(-c2ccnc3cc(F)cc(F)c23)cnc1OC[C@@](C)(N)CC(C)C [Example 224, (S)-1-((5-(5,7-difluoroquinolin-4-yl)-3-methylpyridin-2-yl)oxy)-2,4-dimethylpentan-2-amine]
0.74 nM | Cc1cc(-c2ccnc3cc(Cl)ccc23)cnc1OC[C@@](C)(N)CC(C)C [Example 225, (S)-1-((5-(7-chloroquinolin-4-yl)-3-methylpyridin-2-yl)oxy)-2,4-dimethylpentan-2-amine]
0.93 nM | Cc1cc(-c2ccnc3cc(F)cc(F)c23)ncc1OC[C@@](C)(N)CC(C)C [Example 226, (S)-1-((6-(5,7-difluoroquinolin-4-yl)-4-methylpyridin-3-yl)oxy)-2,4-dimethylpentan-2-amine]
0.93 nM | Cc1cc(-c2ccnc3cc(F)ccc23)ncc1OC[C@@](C)(N)CC(C)C [Example 227, (S)-1-((6-(7-fluoroquinolin-4-yl)-4-methylpyridin-3-yl)oxy)-2,4-dimethylpentan-2-amine]
22 nM | Cc1cc(-c2cc(C)c(OC[C@@](C)(N)CC(C)C)cn2)ccn1 [Example 228, (S)-1-((2′,4-dimethyl-[2,4′-bipyridin]-5-yl)oxy)-2,4-dimethylpentan-2-amine]
1 nM | Cc1cc(-c2ccnc3ccc(Cl)cc23)ncc1OC[C@@](C)(N)CC(C)C [Example 229, (S)-1-((6-(6-chloroquinolin-4-yl)-4-methylpyridin-3-yl)oxy)-2,4-dimethylpentan-2-amine]
0.41 nM | Cc1cc(-c2ccnc3cc(F)ccc23)ncc1OC[C@@](C)(N)CC(C)C [Example 232, (S)-1-((6-(7-fluoroquinolin-4-yl)-4-methylpyridin-3-yl)oxy)-2,4-dimethylpentan-2-amine]
0.36 nM | CC(C)C[C@](C)(N)COc1cnc(-c2ccnc3ccc(F)cc23)cc1Cl [Example 235, (S)-1-((4-chloro-6-(6-fluoroquinolin-4-yl)pyridin-3-yl)oxy)-2,4-dimethylpentan-2-amine]
0.98 nM | CC(C)C[C@](C)(N)COc1cnc(-c2ccnc3ccccc23)cc1Cl [Example 236, (S)-1-((4-chloro-6-(quinolin-4-yl)pyridin-3-yl)oxy)-2,4-dimethylpentan-2-amine]
1.4 nM | COC(=O)Nc1cc(-c2cc(Cl)c(OC[C@@](C)(N)CC(C)C)cn2)ccn1 [Example 237, (S)-methyl (5-((2-amino-2,4-dimethylpentyl)oxy)-4-chloro-[2,4′-bipyridin]-2′-yl)carbamate]
2.1 nM | Cc1cc(-c2cc(Cl)c(OC[C@@](C)(N)CC(C)C)cn2)ccn1 [Example 238, (S)-1-((4-chloro-2′-methyl-[2,4′-bipyridin]-5-yl)oxy)-2,4-dimethylpentan-2-amine]
0.86 nM | CC(C)C[C@](C)(N)COc1cnc(-c2ccnc3cc(F)ccc23)cc1Cl [Example 241, (S)-1-((4-chloro-6-(7-fluoroquinolin-4-yl)pyridin-3-yl)oxy)-2,4-dimethylpentan-2-amine]
1.9 nM | CC(C)C[C@](C)(N)COc1cnc(-c2ccnc3cc(C(F)(F)F)ccc23)cc1Cl [Example 242, (S)-1-((4-chloro-6-(7-(trifluoromethyl)quinolin-4-yl)pyridin-3-yl)oxy)-2,4-dimethylpentan-2-amine]
26 nM | CC(C)C[C@@](C)(N)COc1ncc(-c2ccnc3ccccc23)cc1C(F)F [Example 246, (R)-1-((3-(difluoromethyl)-5-(quinolin-4-yl)pyridin-2-yl)oxy)-2,4-dimethylpentan-2-amine]

SMILES | IC50
CC(C)C[C@](C)(N)COc1cnc(-c2ccnc3cc(F)cc(F)c23)cc1Cl [Example 233, (S)-1-((4-chloro-6-(5,7-difluoroquinolin-4-yl)pyridin-3-yl)oxy)-2,4-dimethylpentan-2-amine] | 0.73 nM
CC(C)C[C@](C)(N)COc1cnc(-c2ccnc3ccc(Cl)cc23)cc1Cl [Example 239, (S)-1-((4-chloro-6-(6-chloroquinolin-4-yl)pyridin-3-yl)oxy)-2,4-dimethylpentan-2-amine] | 0.39 nM
CC(=O)Nc1cccc(-c2ccc(OCC(C)(N)CC(C)C)c(C)c2)c1 (centres unmarked) [Example 250, N-(4′-((2-amino-2,4-dimethylpentyl)oxy)-3′-methyl-[1,1′-biphenyl]-3-yl)acetamide] | 659 nM
CC(=O)Nc1cccc(-c2ccc(OC[C@](C)(N)CC(C)C)c(C)c2)c1 [Example 251] | 1100 nM
